Results: ChEMBL document CHEMBL3612000, “Synthesis, leishmanicidal, trypanocidal and cytotoxic activity of quinoline-hydrazone hybrids” (Eur J Med Chem, 2015)
≈ marks a conversion by molar mass, not a printed value.

Experiments:
Trypanosoma cruzi [1] = assay: Trypanocidal activity against intracellular amastigotes of Trypanosoma cruzi Tulahuen infected in human U937 cells assessed as reduction of viability of intracellular amastigotes by measuring beta-galactosidase activity after 72 hrs by spectrophotometry analysis; type: functional, organism-based; settings: U-937, 72 h
[2] = Selectivity index, ratio of LC50 for human U937 cells to EC50 for intracellular amastigotes of Trypanosoma cruzi Tulahuen; type: toxicity, cell-based, U-937
[3] = (§1) Cytotoxicity against human U937 cells assessed as cell viability after 72 hrs by MTT assay; type: cell-based, U-937; settings: U937 cells, read-out: LC50
Leishmania panamensis [4] = assay: Leishmanicidal activity against intracellular amastigotes of Leishmania (Viannia) panamensis MHOM/CO/87/UA140pIR-GFP infected in human U937 cells assessed as decrease of intracellular parasite load at 20 ug/ml after 72 hrs; type: functional; settings: U-937, 72 h
Trypanosoma cruzi [5] = assay: Trypanocidal activity against intracellular amastigotes of Trypanosoma cruzi Tulahuen infected in human U937 cells assessed as reduction of viability of intracellular amastigotes by measuring beta-galactosidase activity at 5 ug/ml after 72 hrs by spectrophotometry analysis; type: functional; settings: U-937, 72 h
Leishmania major = assay: Antileishmanial activity against Leishmania major; type: functional, organism-based
Leishmania panamensis [6] = assay: Leishmanicidal activity against intracellular amastigotes of Leishmania (Viannia) panamensis MHOM/CO/87/UA140pIR-GFP infected in human U937 cells assessed as decrease of intracellular parasite load after 72 hrs; type: functional, organism-based, U-937
[7] = Selectivity index, ratio of LC50 for human U937 cells to EC50 for intracellular amastigotes of Leishmania (Viannia) panamensis MHOM/CO/87/UA140pIR-GFP; type: toxicity, cell-based, U-937
Trypanosoma cruzi [8] = assay: Trypanocidal activity against intracellular amastigotes of Trypanosoma cruzi Tulahuen infected in human U937 cells assessed as reduction of viability of intracellular amastigotes by measuring beta-galactosidase activity at 20 ug/ml after 72 hrs by spectrophotometry analysis; type: functional; settings: U-937, 72 h
Leishmania panamensis [9] = assay: Leishmanicidal activity against intracellular amastigotes of Leishmania (Viannia) panamensis MHOM/CO/87/UA140pIR-GFP infected in human U937 cells assessed as decrease of intracellular parasite load at 10 ug/ml after 72 hrs; type: functional
Leishmania panamensis [10] = assay: Leishmanicidal activity against intracellular amastigotes of Leishmania (Viannia) panamensis MHOM/CO/87/UA140pIR-GFP infected in human U937 cells assessed as decrease of intracellular parasite load at 5 ug/ml after 72 hrs; type: functional; settings: U-937, 72 h
U-937 = assay: as §1; type: cell-based; settings: u-937, 72 h, read-out: LC50 (the source's name)
Leishmania panamensis [11] = assay: Leishmanicidal activity against intracellular amastigotes of Leishmania (Viannia) panamensis MHOM/CO/87/UA140pIR-GFP infected in human U937 cells assessed as decrease of intracellular parasite load at 1 ug/ml after 72 hrs; type: functional; settings: U-937, 72 h
Trypanosoma cruzi [12] = assay: Trypanocidal activity against intracellular amastigotes of Trypanosoma cruzi Tulahuen infected in human U937 cells assessed as reduction of viability of intracellular amastigotes by measuring beta-galactosidase activity at 10 ug/ml after 72 hrs by spectrophotometry analysis; type: functional; settings: U-937, 72 h
Leishmania panamensis [13] = assay: Leishmanicidal activity against intracellular amastigotes of Leishmania (Viannia) panamensis MHOM/CO/87/UA140pIR-GFP infected in human U937 cells assessed as decrease of intracellular parasite load at 0.05 ug/ml after 72 hrs; type: functional; settings: U-937, 72 h
[14] = Leishmania panamensis, MHOM/CO/87/UA140pIR-GFP, U-937, 72 h, read-out: EC50

| Compound | CC50 at 72 h [3] [µM] | inhibition at 20 µg/mL (Leishmania panamensis [4]) [%] | EC50 (Leishmania panamensis [6]; [14]) [µg/mL] | selectivity ratio [7] | inhibition at 20 µg/mL (Trypanosoma cruzi [8]) [%] | further results |
| --- | --- | --- | --- | --- | --- | --- |
| O=C(N/N=C/c1ccccc1O)c1ccc2ccccc2n1 | 56 | 16.8 |  |  |  | EC50 (Trypanosoma cruzi [1]): 1.4 µg/mL (≈ 4.81 µM); selectivity ratio [2]: 11.6; inhibition at 5 µg/mL (Trypanosoma cruzi [5]): 50.4% |
| CCN(CC)NC(=O)c1ccc(OCc2ccccc2)cc1 |  |  |  |  |  | IC50 (Leishmania major): 21 µM |
| O=C(N/N=C/c1ccc(O)c(O)c1O)c1ccc2ccccc2n1 | 221 | 68.2 | 15.4 (≈ 47.6 µM) | 4.6 | 36.1 |  |
| O=C(N/N=C/c1cccc(O)c1O)c1ccc2ccccc2n1 | 99.6 | 75.7 | 6.5 (≈ 21.2 µM) | 4.7 | 31 |  |
| O=C(N/N=C/c1cccc(O)c1O)c1ccnc2ccccc12 | 47.5 |  |  |  | 27.4 | inhibition at 10 µg/mL (Leishmania panamensis [9]; U-937, 72 h): 47.4% |
| O=C(N/N=C/c1cc(O)ccc1O)c1ccc2ccccc2n1 | 159 | 64 | 37.2 (≈ 121 µM) | 2.8 | 24 |  |
| O=C(N/N=C/c1ccc(O)cc1O)c1nccc2ccccc12 | 28.6 |  | 3.4 (≈ 11.1 µM) | 2.6 |  | inhibition at 5 µg/mL (Leishmania panamensis [10]): 62.6% |
| O=C(N/N=C/c1cc(O)ccc1O)c1ccnc2ccccc12 | > 651 | 26.1 |  |  | 20.7 |  |
| O=C(N/N=C/c1ccc(O)c(O)c1O)c1ccnc2ccccc12 | 347 | 21.3 |  |  | 15.7 |  |
| O=C(Cn1ccnc1[N+](=O)[O-])NCc1ccccc1 [BENZNIDAZOLE] |  |  |  |  | 87.6 | EC50 (Trypanosoma cruzi [1]): 10.5 µg/mL (≈ 40.3 µM); selectivity ratio [2]: 17 |
| MEGLUMINE ANTIMONATE [listing 1 of 2 here] |  |  |  |  |  | EC50 (Leishmania panamensis [6]; u-937): 6.3 µg/mL; Ratio ([7]; u-937): 78.6; CC50 (U-937): 6 µM |
| O=C(N/N=C/c1ccc(O)cc1O)c1ccc2ccccc2n1 | 11.7 |  | 0.8 (≈ 2.6 µM) | 4.5 |  | EC50 (Trypanosoma cruzi [1]): 6.6 µg/mL (≈ 21.5 µM); selectivity ratio [2]: 0.5; inhibition at 1 µg/mL (Leishmania panamensis [11]): 64.7%; inhibition at 5 µg/mL (Trypanosoma cruzi [5]): 41.5% |
| O=C(N/N=C/c1ccc(O)cc1O)c1ccnc2ccccc12 | 34.5 |  |  |  |  | inhibition at 10 µg/mL (Trypanosoma cruzi [12]): 27.7%; EC50 (Trypanosoma cruzi [1]): 20.8 µg/mL (≈ 67.7 µM); selectivity ratio [2]: 0.5 |
| C[C@@H]1[C@H](O)[C@@H](C)/C=C/C=C/C=C/C=C/C=C/C=C/C=C/[C@H](O[C@@H]2O[C@H](C)[C@@H](O)[C@H](N)[C@@H]2O)C[C@@H]2O[C@](O)(C[C@@H](O)C[C@@H](O)[C@H](O)CC[C@@H](O)C[C@@H](O)CC(=O)O[C@H]1C)C[C@H](O)[C@H]2C(=O)O [AMPHOTERICIN B] | 45.6 |  |  | 1050 |  | inhibition at 0.05 µg/mL (Leishmania panamensis [13]): 76% |
| MEGLUMINE ANTIMONATE [listing 2 of 2 here] |  |  |  |  |  | inhibition (Leishmania panamensis [9]; U-937): 79.4% |
